From PubChem BioAssay (NCI)
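Interpolation was linear, between the two tested concentrations surrounding the appropriate level; five concentrations were tested over 48 hours in 96-well plates. TGI: total growth inhibition.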

Key:
Test in all cases: DTP human tumour cell line panel, 48 h
A498 renal = tested on: A498 renal
A549 NSCLC = tested on: A549 NSCLC
ACHN renal = tested on: ACHN renal
BT-549 breast = tested on: BT-549 breast
CAKI-1 renal = tested on: CAKI-1 renal
CCRF-CEM leukemia = tested on: CCRF-CEM leukemia
DU-145 prostate = tested on: DU-145 prostate
EKVX NSCLC = tested on: EKVX NSCLC
HCC-2998 colon = tested on: HCC-2998 colon
HCT-116 colon = tested on: HCT-116 colon
HCT-15 colon = tested on: HCT-15 colon
HOP-62 NSCLC = tested on: HOP-62 NSCLC
HOP-92 NSCLC = tested on: HOP-92 NSCLC
HS 578T breast = tested on: HS 578T breast
HT29 colon = tested on: HT29 colon
IGROV1 ovarian = tested on: IGROV1 ovarian
K-562 leukemia = tested on: K-562 leukemia
KM12 colon = tested on: KM12 colon
LOX IMVI melanoma = tested on: LOX IMVI melanoma
M14 melanoma = tested on: M14 melanoma
MALME-3M melanoma = tested on: MALME-3M melanoma
MCF7 breast = tested on: MCF7 breast
MDA-MB-231 breast = tested on: MDA-MB-231 breast
MDA-MB-435 = tested on: MDA-MB-435
MDA-N = tested on: MDA-N
NCI-H226 lung = tested on: NCI-H226 lung
NCI-H23 lung = tested on: NCI-H23 lung
NCI-H460 lung = tested on: NCI-H460 lung
NCI/ADR-RES ovarian = tested on: NCI/ADR-RES ovarian
OVCAR-3 ovarian = tested on: OVCAR-3 ovarian
OVCAR-4 ovarian = tested on: OVCAR-4 ovarian
OVCAR-5 ovarian = tested on: OVCAR-5 ovarian
OVCAR-8 ovarian = tested on: OVCAR-8 ovarian
PC-3 prostate = tested on: PC-3 prostate
SF-268 CNS = tested on: SF-268 CNS
SF-295 CNS = tested on: SF-295 CNS
SF-539 CNS = tested on: SF-539 CNS
SK-MEL-28 melanoma = tested on: SK-MEL-28 melanoma
SK-MEL-5 melanoma = tested on: SK-MEL-5 melanoma
SK-OV-3 ovarian = tested on: SK-OV-3 ovarian
SN12C renal = tested on: SN12C renal
SNB-19 CNS = tested on: SNB-19 CNS
SNB-75 CNS = tested on: SNB-75 CNS
SW-620 colon = tested on: SW-620 colon
T-47D breast = tested on: T-47D breast
TK-10 renal = tested on: TK-10 renal
U251 CNS = tested on: U251 CNS
UACC-257 melanoma = tested on: UACC-257 melanoma
UACC-62 melanoma = tested on: UACC-62 melanoma
UO-31 renal = tested on: UO-31 renal
786-0 renal = tested on: 786-0 renal
COLO 205 colon = tested on: COLO 205 colon
MOLT-4 leukemia = tested on: MOLT-4 leukemia
RPMI-8226 leukemia = tested on: RPMI-8226 leukemia
RXF 393 renal = tested on: RXF 393 renal
SK-MEL-2 melanoma = tested on: SK-MEL-2 melanoma
HL-60(TB) leukemia = tested on: HL-60(TB) leukemia
NCI-H522 lung = tested on: NCI-H522 lung

SMILES: COc1cc(C2c3[nH]c4ccccc4c3[C@@H](Nc3ccc(F)cc3)[C@H]3COC(=O)N23)cc(OC)c1O (some centres not stated)
- TGI (A498 renal): 7.55 µM
- TGI (A549 NSCLC): 3.31 µM
- TGI (ACHN renal): 1.34 µM
- TGI (BT-549 breast): 4.28 µM
- TGI (CAKI-1 renal): 3.22 µM
- TGI (CCRF-CEM leukemia): 3.93 µM
- TGI (DU-145 prostate): 4.07 µM
- TGI (EKVX NSCLC): > 10 µM
- TGI (HCC-2998 colon): 3.34 µM
- TGI (HCT-116 colon): > 10 µM
- TGI (HCT-15 colon): 5.35 µM
- TGI (HOP-62 NSCLC): 3.42 µM
- TGI (HOP-92 NSCLC): > 10 µM
- TGI (HS 578T breast): 2.11 µM
- TGI (HT29 colon): > 10 µM
- TGI (IGROV1 ovarian): 9.24 µM
- TGI (K-562 leukemia): > 10 µM
- TGI (KM12 colon): 6.5 µM
- TGI (LOX IMVI melanoma): 3.26 µM
- TGI (M14 melanoma): 9.55 µM
- TGI (MALME-3M melanoma): 7.28 µM
- TGI (MCF7 breast): > 10 µM
- TGI (MDA-MB-231 breast): > 10 µM
- TGI (MDA-MB-435): > 10 µM
- TGI (MDA-N): > 10 µM
- TGI (NCI-H226 lung): 2.9 µM
- TGI (NCI-H23 lung): 5.18 µM
- TGI (NCI-H460 lung): 4.74 µM
- TGI (NCI/ADR-RES ovarian): > 10 µM
- TGI (OVCAR-3 ovarian): 6.09 µM
- TGI (OVCAR-4 ovarian): > 10 µM
- TGI (OVCAR-5 ovarian): 9.08 µM
- TGI (OVCAR-8 ovarian): > 10 µM
- TGI (PC-3 prostate): > 10 µM
- TGI (SF-268 CNS): 7.01 µM
- TGI (SF-295 CNS): 3.69 µM
- TGI (SF-539 CNS): 3.17 µM
- TGI (SK-MEL-28 melanoma): > 10 µM
- TGI (SK-MEL-5 melanoma): 2.48 µM
- TGI (SK-OV-3 ovarian): 3.95 µM
- TGI (SN12C renal): 5.57 µM
- TGI (SNB-19 CNS): 7.09 µM
- TGI (SNB-75 CNS): 6.08 µM
- TGI (SW-620 colon): 5.74 µM
- TGI (T-47D breast): > 10 µM
- TGI (TK-10 renal): 4.85 µM
- TGI (U251 CNS): 7.96 µM
- TGI (UACC-257 melanoma): > 10 µM
- TGI (UACC-62 melanoma): 4.6 µM
- TGI (UO-31 renal): 2.67 µM

SMILES: O=[N+]([O-])/C(C(Cl)=C(Cl)Cl)=C(\Nc1cccc2ccccc12)Sc1ccccc1
- TGI (786-0 renal): 38 µM
- TGI (A498 renal): 23.5 µM
- TGI (A549 NSCLC): 71.6 µM
- TGI (ACHN renal): 28.1 µM
- TGI (BT-549 breast): 35.4 µM
- TGI (CAKI-1 renal): 29.1 µM
- TGI (CCRF-CEM leukemia): > 100 µM
- TGI (COLO 205 colon): 28.7 µM
- TGI (DU-145 prostate): 32 µM
- TGI (EKVX NSCLC): 42.2 µM
- TGI (HCC-2998 colon): 45.2 µM
- TGI (HCT-116 colon): 56.3 µM
- TGI (HCT-15 colon): 33.1 µM
- TGI (HOP-62 NSCLC): 50.5 µM
- TGI (HS 578T breast): 27.2 µM
- TGI (HT29 colon): > 100 µM
- TGI (K-562 leukemia): > 100 µM
- TGI (KM12 colon): 32 µM
- TGI (M14 melanoma): > 100 µM
- TGI (MALME-3M melanoma): 31.3 µM
- TGI (MCF7 breast): 28 µM
- TGI (MDA-MB-231 breast): 23.4 µM
- TGI (MDA-MB-435): 33.4 µM
- TGI (MDA-N): 81 µM
- TGI (MOLT-4 leukemia): > 100 µM
- TGI (NCI-H226 lung): 40.4 µM
- TGI (NCI-H23 lung): 31.6 µM
- TGI (NCI-H460 lung): > 100 µM
- TGI (NCI/ADR-RES ovarian): 31 µM
- TGI (OVCAR-3 ovarian): 21.8 µM
- TGI (OVCAR-4 ovarian): 35.7 µM
- TGI (OVCAR-5 ovarian): 82.1 µM
- TGI (OVCAR-8 ovarian): 28.6 µM
- TGI (PC-3 prostate): 27.4 µM
- TGI (RPMI-8226 leukemia): > 100 µM
- TGI (RXF 393 renal): 26.9 µM
- TGI (SF-268 CNS): 26 µM
- TGI (SF-295 CNS): 37.1 µM
- TGI (SF-539 CNS): 37.4 µM
- TGI (SK-MEL-2 melanoma): 30.6 µM
- TGI (SK-MEL-28 melanoma): 34 µM
- TGI (SK-OV-3 ovarian): > 100 µM
- TGI (SN12C renal): 69.3 µM
- TGI (SNB-19 CNS): 40 µM
- TGI (SNB-75 CNS): 43.4 µM
- TGI (SW-620 colon): 24.9 µM
- TGI (T-47D breast): 44.8 µM
- TGI (U251 CNS): 23.4 µM
- TGI (UACC-257 melanoma): 42.3 µM
- TGI (UACC-62 melanoma): 24.1 µM
- TGI (UO-31 renal): 38.7 µM

SMILES: CC(=O)OC/C=C(\C)CCC(Br)C(C)(C)Br (configuration not stated)
- TGI (786-0 renal): > 10 µM
- TGI (A498 renal): > 10 µM
- TGI (A549 NSCLC): > 10 µM
- TGI (ACHN renal): > 10 µM
- TGI (BT-549 breast): > 10 µM
- TGI (CAKI-1 renal): > 10 µM
- TGI (CCRF-CEM leukemia): > 10 µM
- TGI (COLO 205 colon): > 10 µM
- TGI (DU-145 prostate): > 10 µM
- TGI (EKVX NSCLC): > 10 µM
- TGI (HCC-2998 colon): > 10 µM
- TGI (HCT-116 colon): > 10 µM
- TGI (HCT-15 colon): > 10 µM
- TGI (HL-60(TB) leukemia): > 10 µM
- TGI (HOP-62 NSCLC): > 10 µM
- TGI (HS 578T breast): > 10 µM
- TGI (HT29 colon): > 10 µM
- TGI (IGROV1 ovarian): > 10 µM
- TGI (K-562 leukemia): > 10 µM
- TGI (KM12 colon): > 10 µM
- TGI (LOX IMVI melanoma): > 10 µM
- TGI (M14 melanoma): > 10 µM
- TGI (MALME-3M melanoma): > 10 µM
- TGI (MCF7 breast): > 10 µM
- TGI (MDA-MB-231 breast): > 10 µM
- TGI (MDA-MB-435): > 10 µM
- TGI (MDA-N): > 10 µM
- TGI (MOLT-4 leukemia): > 10 µM
- TGI (NCI-H226 lung): > 10 µM
- TGI (NCI-H23 lung): > 10 µM
- TGI (NCI-H460 lung): > 10 µM
- TGI (NCI-H522 lung): > 10 µM
- TGI (NCI/ADR-RES ovarian): > 10 µM
- TGI (OVCAR-3 ovarian): > 10 µM
- TGI (OVCAR-4 ovarian): > 10 µM
- TGI (OVCAR-5 ovarian): > 10 µM
- TGI (OVCAR-8 ovarian): > 10 µM
- TGI (PC-3 prostate): > 10 µM
- TGI (RPMI-8226 leukemia): > 10 µM
- TGI (RXF 393 renal): > 10 µM
- TGI (SF-268 CNS): > 10 µM
- TGI (SF-295 CNS): > 10 µM
- TGI (SF-539 CNS): > 10 µM
- TGI (SK-MEL-2 melanoma): > 10 µM
- TGI (SK-MEL-28 melanoma): > 10 µM
- TGI (SK-MEL-5 melanoma): > 10 µM
- TGI (SK-OV-3 ovarian): > 10 µM
- TGI (SN12C renal): > 10 µM
- TGI (SNB-19 CNS): > 10 µM
- TGI (SNB-75 CNS): > 10 µM
- TGI (SW-620 colon): > 10 µM
- TGI (T-47D breast): > 10 µM
- TGI (TK-10 renal): > 10 µM
- TGI (U251 CNS): > 10 µM
- TGI (UACC-257 melanoma): > 10 µM
- TGI (UACC-62 melanoma): > 10 µM
